Drawing on patent publication US9539260B2, “Dihydro-benzo-oxazine and dihydro-pyrido-oxazine derivatives” (Novartis AG, priority 2012, dated 2017), this text covers IC50 for 26 compounds.

The target of experiment [1] is PI3K delta (Homo sapiens (Human), UniProt O00329). The experiment can be described thus: Enzymatic PI3K delta isoform inhibition (lipid kinase activity, Kinase-Glo luminescence). Type of experiment: biochemical. The settings on record: Enzymatic assay. In short, it runs like this: (§1)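 IC50s derive from 4-parameter logistic fits of % inhibition across 8 concentrations (usually 10 to 0.003 μM). Lipid kinase reaction: PI3K (10 nM) plus phosphatidylinositol (5 μg/mL) started with 2 μM ATP, stopped near 50% ATP depletion; leftover ATP quantified by Kinase-Glo luminescence.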
PI3K delta, sequence (O00329 other isoform, or with tags, fused parts or gaps linker GGGGGG): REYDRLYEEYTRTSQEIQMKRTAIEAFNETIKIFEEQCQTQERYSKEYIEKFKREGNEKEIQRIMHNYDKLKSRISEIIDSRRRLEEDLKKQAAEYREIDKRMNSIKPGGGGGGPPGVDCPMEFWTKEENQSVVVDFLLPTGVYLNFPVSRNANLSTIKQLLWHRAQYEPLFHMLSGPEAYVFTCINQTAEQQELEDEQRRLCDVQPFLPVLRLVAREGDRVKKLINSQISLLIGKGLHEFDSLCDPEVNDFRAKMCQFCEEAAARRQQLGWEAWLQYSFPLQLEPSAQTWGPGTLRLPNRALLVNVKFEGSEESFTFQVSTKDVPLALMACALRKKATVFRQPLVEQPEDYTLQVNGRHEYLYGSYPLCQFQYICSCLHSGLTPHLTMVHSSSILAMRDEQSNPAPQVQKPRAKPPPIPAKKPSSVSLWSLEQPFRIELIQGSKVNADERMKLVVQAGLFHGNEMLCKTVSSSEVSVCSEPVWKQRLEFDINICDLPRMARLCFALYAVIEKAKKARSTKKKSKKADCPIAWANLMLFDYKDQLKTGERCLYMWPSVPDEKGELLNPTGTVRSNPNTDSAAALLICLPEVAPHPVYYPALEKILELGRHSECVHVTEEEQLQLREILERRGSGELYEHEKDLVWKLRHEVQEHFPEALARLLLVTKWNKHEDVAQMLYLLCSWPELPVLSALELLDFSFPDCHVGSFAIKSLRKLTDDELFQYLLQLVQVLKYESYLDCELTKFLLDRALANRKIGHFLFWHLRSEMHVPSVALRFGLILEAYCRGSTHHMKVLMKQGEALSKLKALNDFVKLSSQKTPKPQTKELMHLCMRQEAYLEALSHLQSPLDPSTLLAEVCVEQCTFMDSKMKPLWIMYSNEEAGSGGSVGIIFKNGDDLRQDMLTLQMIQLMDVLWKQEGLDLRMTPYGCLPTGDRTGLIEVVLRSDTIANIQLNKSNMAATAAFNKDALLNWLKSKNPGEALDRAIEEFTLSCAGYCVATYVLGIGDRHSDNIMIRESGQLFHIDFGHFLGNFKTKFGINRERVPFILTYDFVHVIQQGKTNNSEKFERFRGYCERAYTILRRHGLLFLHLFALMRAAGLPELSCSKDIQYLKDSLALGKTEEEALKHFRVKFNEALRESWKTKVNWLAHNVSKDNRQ

The target of experiment [2] is PI3K alpha (Homo sapiens (Human), UniProt P42336). As to the kind of experiment: Enzymatic PI3K alpha isoform inhibition (lipid kinase activity, Kinase-Glo luminescence). Type of experiment: biochemical. The settings on record: Enzymatic assay. An outline of the steps: as §1
PI3K alpha, sequence (P42336 other isoform, or with tags, fused parts or gaps): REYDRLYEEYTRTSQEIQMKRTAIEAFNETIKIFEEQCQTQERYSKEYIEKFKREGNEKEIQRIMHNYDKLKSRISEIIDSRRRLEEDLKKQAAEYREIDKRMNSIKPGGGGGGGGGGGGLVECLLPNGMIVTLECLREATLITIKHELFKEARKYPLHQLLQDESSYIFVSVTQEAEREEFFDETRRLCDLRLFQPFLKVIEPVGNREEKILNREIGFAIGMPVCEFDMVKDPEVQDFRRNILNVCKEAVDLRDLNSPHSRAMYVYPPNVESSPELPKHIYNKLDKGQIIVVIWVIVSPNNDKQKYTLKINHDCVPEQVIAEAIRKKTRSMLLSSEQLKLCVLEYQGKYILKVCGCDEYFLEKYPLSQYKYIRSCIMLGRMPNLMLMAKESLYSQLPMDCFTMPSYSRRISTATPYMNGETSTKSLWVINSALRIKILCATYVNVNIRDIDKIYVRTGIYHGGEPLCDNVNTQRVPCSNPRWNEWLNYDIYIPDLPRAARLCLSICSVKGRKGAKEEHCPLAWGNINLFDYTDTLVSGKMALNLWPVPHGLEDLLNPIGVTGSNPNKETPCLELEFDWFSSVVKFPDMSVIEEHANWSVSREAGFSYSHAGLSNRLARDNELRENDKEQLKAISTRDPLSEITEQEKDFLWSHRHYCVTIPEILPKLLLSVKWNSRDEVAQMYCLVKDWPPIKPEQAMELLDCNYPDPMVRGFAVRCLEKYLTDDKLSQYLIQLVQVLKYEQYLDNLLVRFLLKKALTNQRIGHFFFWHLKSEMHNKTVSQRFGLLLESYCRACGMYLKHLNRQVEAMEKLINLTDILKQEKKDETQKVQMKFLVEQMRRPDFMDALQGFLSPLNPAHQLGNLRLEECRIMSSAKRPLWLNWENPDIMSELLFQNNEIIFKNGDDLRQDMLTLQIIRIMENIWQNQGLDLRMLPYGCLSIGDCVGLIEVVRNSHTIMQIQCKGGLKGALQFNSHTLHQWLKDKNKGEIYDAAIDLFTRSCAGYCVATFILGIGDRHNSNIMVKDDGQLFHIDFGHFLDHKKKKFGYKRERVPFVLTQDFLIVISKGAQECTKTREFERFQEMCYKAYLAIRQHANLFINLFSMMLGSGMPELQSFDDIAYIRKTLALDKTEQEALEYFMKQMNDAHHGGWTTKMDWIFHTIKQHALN

Regarding `CCC(=O)N1CC[C@H](Oc2ccc3c(c2)N(c2ccc([S+]([O-])CC)nc2)CCO3)C1` (stereo partly drawn) [Example B121, 1-{(S)-3-[4-(6-Ethanesulfinyl-pyridin-3-yl)-3,4-dihydro-2H-benzo[1,4]oxazin-6-yloxy]-pyrrolidin-1-yl}-propan-1-one], the IC50 in experiment [1] amounted to 75 nM; in experiment [2], 3360 nM.

On to `COc1ncc(N2CCOc3ccc(O[C@H]4CCN(C(=O)[C@@H]5CCN(C(C)=O)C5)C4)cc32)cc1C` [Example B122, 1-((R)-3-{(S)-3-[4-(6-Methoxy-5-methyl-pyridin-3-yl)-3,4-dihydro-2H-benzo[1,4]oxazin-6-yloxy]-pyrrolidine-1-carbonyl}-pyrrolidin-1-yl)-ethanone], for which the IC50 in experiment [1] stood at 24 nM; in experiment [2] it was 425 nM.

For the compound `COc1ncc(N2CCOc3ccc(O[C@@H]4CCN(C(=O)C5CCOCC5)C4)cc32)cc1C#N` [Example C2, 2-Methoxy-5-{6-[(R)-1-(tetrahydro-pyran-4-carbonyl)-pyrrolidin-3-yloxy]-2,3-dihydro-benzo[1,4]oxazin-4-yl}-nicotinonitrile], the half-maximal inhibitory concentration (IC50) in experiment [1] amounted to 243 nM; in experiment [2], 1220 nM.

`CCC(=O)N1CC[C@@H](Oc2ccc3c(c2)N(c2ccc(OC)nc2)CCO3)C1` [Example C3, 1-{(R)-3-[4-(6-Methoxy-pyridin-3-yl)-3,4-dihydro-2H-benzo[1,4]oxazin-6-yloxy]-pyrrolidin-1-yl}-propan-1-one]: the IC50 in experiment [1] stood at 1210 nM; in experiment [2], 3380 nM.

With `CCC(=O)N1CC[C@H](Oc2ccc3c(c2)N(c2ccc(OC)nc2)CCO3)C1` [Example C4, 1-{(S)-3-[4-(6-Methoxy-pyridin-3-yl)-3,4-dihydro-2H-benzo[1,4]oxazin-6-yloxy]-pyrrolidin-1-yl}-propan-1-one], the IC50 was determined as 28 nM in experiment [1] and 3000 nM in experiment [2].

Turning to `COc1ncc(N2c3cc(O[C@H]4CCN(C(=O)C5CCOCC5)C4)ccc3OCC2C)cc1C#N` (stereo partly drawn) [Example C5, 2-Methoxy-5-{3-methyl-6-[(S)-1-(tetrahydro-pyran-4-carbonyl)-pyrrolidin-3-yloxy]-2,3-dihydro-benzo[1,4]oxazin-4-yl}-nicotinonitrile], the IC50 was 95 nM in experiment [1] and 5510 nM in experiment [2].

For `COc1ncc(N2c3cc(O[C@H]4CCN(C(=O)C5CCOCC5)C4)ccc3OCC2C)cc1C#N` (stereo partly drawn) [Example C6, 2-Methoxy-5-{3-methyl-6-[(S)-1-(tetrahydro-pyran-4-carbonyl)-pyrrolidin-3-yloxy]-2,3-dihydro-benzo[1,4]oxazin-4-yl}-nicotinonitrile], the IC50 in experiment [1] was 181 nM; in experiment [2], 4260 nM.

On to `COc1ncc(N2CCOc3ccc(O[C@H]4CCN(C(=O)c5ccnn5C)C4)cc32)cc1C#N` [Example C8, 2-Methoxy-5-{6-[(S)-1-(2-methyl-2H-pyrazole-3-carbonyl)-pyrrolidin-3-yloxy]-2,3-dihydro-enzo[1,4]oxazin-4-yl}-nicotinonitrile], for which the IC50 stood at 13 nM in experiment [1] and 374 nM in experiment [2].

Turning to `COc1ncc(N2CCOc3ccc(O[C@H]4CCN(C(=O)c5ccno5)C4)cc32)cc1C#N` [Example C9, 5-{6-[(S)-1-(Isoxazole-5-carbonyl)-pyrrolidin-3-yloxy]-2,3-dihydro-benzo[1,4]oxazin-4-yl}-2-methoxy-nicotinonitrile], the IC50 in experiment [1] came to 6 nM; in experiment [2], 185 nM.

On to `COc1ncc(N2CCOc3ccc(O[C@H]4CCN(C(=O)c5cn[nH]c5)C4)cc32)cc1C#N` [Example C10, 2-Methoxy-5-{6-[(S)-1-(1H-pyrazole-4-carbonyl)-pyrrolidin-3-yloxy]-2,3-dihydro-benzo[1,4]oxazin-4-yl}-nicotinonitrile], for which the IC50 in experiment [1] amounted to 15 nM; in experiment [2] it was 147 nM.

Regarding `COc1ncc(N2CCOc3ccc(O[C@H]4CCN(C(=O)CS(C)(=O)=O)C4)cc32)cc1C#N` [Example C11, 5-{6-[(S)-1-(2-Methanesulfonyl-acetyl)-pyrrolidin-3-yloxy]-2,3-dihydro-benzo[1,4]oxazin-4-yl}-2-methoxy-nicotinonitrile], the results for the IC50 in experiment [1] and in experiment [2] were 23 nM and 353 nM, respectively.

For the compound `COc1ncc(N2CCOc3ccc(O[C@H]4CCN(C(=O)c5nnc(C)o5)C4)cc32)cc1C#N` [Example C12, 2-Methoxy-5-{6-[(S)-1-(5-methyl-[1,3,4]oxadiazole-2-carbonyl)-pyrrolidin-3-yloxy]-2,3-dihydro-benzo[1,4]oxazin-4-yl}-nicotinonitrile], the IC50 in experiment [1] worked out at 116 nM; in experiment [2], 303 nM.

`COc1ncc(N2CCOc3ccc(O[C@H]4CCN(C(=O)c5cncnc5)C4)cc32)cc1C#N` [Example C13, 2-Methoxy-5-{6-[(S)-1-(pyrimidine-5-carbonyl)-pyrrolidin-3-yloxy]-2,3-dihydro-benzo[1,4]oxazin-4-yl}-nicotinonitrile]: the half-inhibitory concentration (IC50) in experiment [1] was determined as 77 nM; in experiment [2], 667 nM.

For `COc1ncc(N2CCOc3ccc(O[C@H]4CCN(C(=O)c5cncs5)C4)cc32)cc1C#N` [Example C14, 2-Methoxy-5-{6-[(S)-1-(thiazole-5-carbonyl)-pyrrolidin-3-yloxy]-2,3-dihydro-benzo[1,4]oxazin-4-yl}-nicotinonitrile], the IC50 worked out at 5 nM in experiment [1] and 250 nM in experiment [2].

On to `COc1ncc(N2CCOc3ccc(O[C@H]4CCN(C(=O)c5cnccn5)C4)cc32)cc1C#N` [Example C15, 2-Methoxy-5-{6-[(S)-1-(pyrazine-2-carbonyl)-pyrrolidin-3-yloxy]-2,3-dihydro-benzo[1,4]oxazin-4-yl}-nicotinonitrile], for which the half-maximal inhibitory concentration (IC50) in experiment [1] was 17 nM; in experiment [2] it was 383 nM.

For `COc1ncc(N2CCOc3ccc(O[C@H]4CCN(C(=O)c5cccnc5)C4)cc32)cc1C#N` [Example C16, 2-Methoxy-5-{6-[(S)-1-(pyridine-3-carbonyl)-pyrrolidin-3-yloxy]-2,3-dihydro-benzo[1,4]oxazin-4-yl}-nicotinonitrile], the figures for the IC50 in experiment [1] and in experiment [2] were 15 nM and 478 nM, respectively.

With `COc1ncc(N2CCOc3ccc(O[C@H]4CCN(C(=O)c5ccncc5)C4)cc32)cc1C#N` [Example C17, 2-Methoxy-5-{6-[(S)-1-(pyridine-4-carbonyl)-pyrrolidin-3-yloxy]-2,3-dihydro-benzo[1,4]oxazin-4-yl}-nicotinonitrile], the IC50 stood at 8 nM in experiment [1] and 358 nM in experiment [2].

In the case of `COc1ncc(N2CCOc3ccc(O[C@H]4CCN(C(=O)c5cn(C)nc5C)C4)cc32)cc1C#N` [Example C18, 5-{6-[(S)-1-(1,3-Dimethyl-1H-pyrazole-4-carbonyl)-pyrrolidin-3-yloxy]-2,3-dihydro-benzo[1,4]oxazin-4-yl}-2-methoxy-nicotinonitrile], the IC50 in experiment [1] was determined as 12 nM; in experiment [2], 425 nM.

In the case of `COc1ncc(N2CCOc3ccc(O[C@H]4CCN(C(=O)C5CNC(=O)C5)C4)cc32)cc1C#N` (stereo partly drawn) [Example C19, 2-Methoxy-5-{6-[(S)-1-(5-oxo-pyrrolidine-3-carbonyl)-pyrrolidin-3-yloxy]-2,3-dihydro-benzo[1,4]oxazin-4-yl}-nicotinonitrile], the IC50 in experiment [1] is 21 nM; in experiment [2], 488 nM.

In the case of `COc1ncc(N2CCOc3ccc(O[C@H]4CCN(C(=O)c5oc(C)nc5C)C4)cc32)cc1C#N` [Example C20, 5-{6-[(S)-1-(2,4-Dimethyl-oxazole-5-carbonyl)-pyrrolidin-3-yloxy]-2,3-dihydro-benzo[1,4]oxazin-4-yl}-2-methoxy-nicotinonitrile], the results for the IC50 in experiment [1] and in experiment [2] were 6 nM and 193 nM, respectively.

As to `COc1ncc(N2CCOc3ccc(O[C@H]4CCN(C(=O)C5=CC(=O)CC(C)(C)O5)C4)cc32)cc1C#N` [Example C21, 5-{6-[(S)-1-(6,6-Dimethyl-4-oxo-5,6-dihydro-4H-pyran-2-carbonyl)-pyrrolidin-3-yloxy]-2,3-dihydro-benzo[1,4]oxazin-4-yl}-2-methoxy-nicotinonitrile], the IC50 in experiment [1] was found to be 28 nM; in experiment [2], 698 nM.

As to `COc1ncc(N2CCOc3ccc(O[C@H]4CCN(C(=O)c5cnn6cccnc56)C4)cc32)cc1C#N` [Example C22, 2-Methoxy-5-{6-[(S)-1-(pyrazolo[1,5-a]pyrimidine-3-carbonyl)-pyrrolidin-3-yloxy]-2,3-dihydro-benzo[1,4]oxazin-4-yl}-nicotinonitrile], the IC50 stood at 20 nM in experiment [1] and 202 nM in experiment [2].

Turning to `COc1ncc(N2CCOc3ccc(O[C@H]4CCN(C(=O)C5CCC(=O)N5)C4)cc32)cc1C#N` (stereo partly drawn) [Example C23, 2-Methoxy-5-{6-[(S)-1-(5-oxo-pyrrolidine-2-carbonyl)-pyrrolidin-3-yloxy]-2,3-dihydro-benzo[1,4]oxazin-4-yl}-nicotinonitrile], the half-inhibitory concentration (IC50) in experiment [1] was found to be 32 nM; in experiment [2], 658 nM.

For the compound `COc1ncc(N2CCOc3ccc(O[C@H]4CCN(C(=O)C5COCCO5)C4)cc32)cc1C#N` (stereo partly drawn) [Example C24, 5-{6-[(S)-1-([1,4]Dioxane-2-carbonyl)-pyrrolidin-3-yloxy]-2,3-dihydro-benzo[1,4]oxazin-4-yl}-2-methoxy-nicotinonitrile], the IC50 in experiment [1] turned out to be 3 nM; in experiment [2] it was 560 nM.

As for `COc1ncc(N2CCOc3ccc(O[C@H]4CCN(C(=O)C5COCCO5)C4)cc32)cc1C#N` (stereo partly drawn) [Example C25, 5-{6-[(S)-1-([1,4]Dioxane-2-carbonyl)-pyrrolidin-3-yloxy]-2,3-dihydro-benzo[1,4]oxazin-4-yl}-2-methoxy-nicotinonitrile], the results for the IC50 in experiment [1] and in experiment [2] were 12.5 nM and 474 nM, respectively.

For `COc1ncc(N2CCOc3ccc(O[C@H]4CCN(C(=O)C5CCCOC5)C4)cc32)cc1C#N` (stereo partly drawn) [Example C26, 2-Methoxy-5-{6-[(S)-1-(tetrahydro-pyran-3-carbonyl)-pyrrolidin-3-yloxy]-2,3-dihydro-benzo[1,4]oxazin-4-yl}-nicotinonitrile], the half-inhibitory concentration (IC50) in experiment [1] is 3220 nM; in experiment [2] it was 6950 nM.
